# Key:
# [1] = system: progressing desmoid tumors; settings: Phase 2, participants with progressing desmoid tumors; cited from earlier work
# [2] = system: progressing desmoid tumors/aggressive fibromatosis (DT/AF); format: in vivo
# Excerpt: A Phase 3, double-blind, placebo-controlled study is being conducted to determine the efficacy and safety of nirogacestat dihydrobromide in participants with progressing desmoid tumors. A Phase 1 solid tumor study provided preliminary efficacy (Messersmith, W., et al., “A Phase I, dose-finding study in patients with advanced solid malignancies of the oral y-secretase inhibitor PF-03084014,” Clin. Cancer Res., 21:60-7 (2015)), including long-term durable responses and safety of nirogacestat in desmoid participants (Villalobos, V. M., et al., “Long-Term Follow-Up of Desmoid Fibromatosis Treated with PF-03084014, an Oral Gamma Secretase Inhibitor, Ann. Surg. Oncol., 25:768-75 (2018)). These encouraging results lead to a Phase 2 study in participants with progressing desmoid tumors (Kummar, S., et al., “Clinical Activity of the γ-Secretase Inhibitor PF-03084014 in Adults with Desmoid Tumors (Aggressive Fibromatosis), J. Clin. Oncol., 35:1561-69 (2017)). […] Importantly, participants in the responder group had failed previous systemic therapies (imatinib or sorafenib) indicating a need for alterative therapeutic options for this patient population.
# Overall Design: The Phase 3 study will be a multi-center, randomized, double-blind, placebo-controlled, event-driven to compare the efficacy, safety, and tolerability of nirogacestat and placebo in adult participants with progressing DT/AF. This study will consist of 2 phases, a double-blind and an optional open-label extension (OLE) phase.
# Following disease progression (confirmed by central review using RECIST v1.1), or completion of the double-blind phase (once the required number of events have been observed and the primary PFS analysis has been completed), participants' treatment assignment will be unblinded, and if eligible, participants will have the option to enroll in the optional OLE phase.
# Type of Participant and Disease Characteristics: • 1. Participant has DT/AF that has progressed by ≥20% as measured by RECIST v1.1 within the 12-month period prior to first dose of study treatment. • 2. Participant has: • a. Newly diagnosed, measurable progressing DT/AF that is not amenable to surgical resection or radiation therapy; • OR • b. Recurrent, progressing DT/AF following CR to initial therapy; • OR • c. Preexisting DT/AF and has previously received therapy and the residual tumor has progressed. • 3. Participant agrees to provide archival or new tumor tissue for confirmation of disease. • 4. If participant was previously treated with an investigational therapy for treatment of DT/AF, participant must have completed prior therapy at least 28 days prior to signing informed consent. All toxicities from prior therapy must resolve to Grade 1 or baseline. • 5. Participants who are receiving nonsteroidal anti-inflammatory drugs (NSAIDs) as treatment for conditions other than DT/AF must be receiving them prior to the observed progression (inclusion criteria 1) for: • a. Chronic scheduled daily use (defined as stable for 28 days prior to signing informed consent); or • b. Occasional use (defined as ≤3 days per week) for the treatment of pain or as an anti-inflammatory in licensed conditions such as headache, arthritis, etc. • c. Participant has an Eastern Cooperative Oncology Group (ECOG) performance status ≤2 at screening. • 6. Participant has adequate organ and bone marrow function as defined by the following Screening laboratory values: • a. Absolute neutrophil count ≥1500/μL; • b. Platelets ≥100×10^3/μL; • c. Hemoglobin ≥9 g/dL; • d. Total bilirubin ≤1.5×upper limit of normal (ULN) (isolated bilirubin >1.5×ULN is acceptable if bilirubin is fractionated and direct bilirubin <35%); • e. Aspartate aminotransferase (AST) (serum glutamic oxaloacetic transaminase)/alanine aminotransferase (ALT) (serum glutamic pyruvate transaminase)≤2×ULN; and • f. […] Participant can swallow tablets and has no gastrointestinal conditions affecting absorption. […]
# [3] = 150 mg twice daily, positive change indicates improvement
# [4] = change from Baseline in EORTC, P: <0.001
smiles,measurement,setting,value
"CCC[C@H](N[C@H]1CCc2cc(F)cc(F)c2C1)C(=O)Nc1cn(C(C)(C)CNCC(C)(C)C)cn1 (single isomer, unassigned) [nirogacestat]",participants progressing while on therapy,[1],no participants progressing while on therapy
same,response rate,[1],29%
same,tumor shrinkage as measured by magnetic resonance imaging (MRI),[1],significant tumor shrinkage
same,"mean change from Baseline in EORTC, Global health status/Quality of life (GHS/QoL)",[2]; [3],4.493
same,"mean change from Baseline in EORTC, QLQ30 Role Functioning",[2]; [3],11.133
same,"mean change from Baseline in EORTC, QLQC30 Physical Functioning",[2]; [3],8.523
same,"LS mean difference (between nirogacestat and placebo), Global health status/Quality of life (GHS/QoL)","[2]; change from Baseline in EORTC, P: 0.007",10.515
same,"LS mean difference (between nirogacestat and placebo), QLQ30 Role Functioning",[2]; [4],16.714
same,"LS mean difference (between nirogacestat and placebo), QLQC30 Physical Functioning",[2]; [4],13.154
same,most frequent adverse reactions requiring a dose reduction or interruption,[2]; in vivo,"diarrhea, rash maculo-papular, hypophosphatemia, stomatitis, folliculitis, and fatigue"
same,"progression-free survival (PFS), hazard ratio (HR)","[2]; nirogacestat 150 mg twice daily over placebo, <0.001",0.29
same,objective response rate (ORR),"[2]; nirogacestat 150 mg twice daily versus placebo, p<0.001",statistically significant improvements
same,four different quality of life (QoL) assessments and patient-reported outcomes (PROs),"[2]; nirogacestat 150 mg twice daily versus placebo, p<0.001 for each",statistically significant improvements
